Test results as given in US20180284123A1, “BARCODED RAPID ASSAY PLATFORM USEFUL FOR EFFICIENT ANALYSIS OF CANDIDATE MOLECULES AND METHODS OF MAKING AND USING THE PLATFORM” (California Institute of Technology, priority 2017, published 2018).

Key:
KRAS [1] = biological target: T1, KRAS (Homo sapiens, UniProt P01116); assay: Barcoded rapid assay microchip binding curves of FIG. 6A/6B; conditions: fitted curves of FIG. 6B, Hill coefficient set to 1, triplicate
T1 construct: His6-tagged human KRas Isoform 4B (residues 1-169); His6; made in house; host or cells: E. coli BL21(DE3), PQE80 vector
T1 sequence (P01116 1-169 isoform P01116-2): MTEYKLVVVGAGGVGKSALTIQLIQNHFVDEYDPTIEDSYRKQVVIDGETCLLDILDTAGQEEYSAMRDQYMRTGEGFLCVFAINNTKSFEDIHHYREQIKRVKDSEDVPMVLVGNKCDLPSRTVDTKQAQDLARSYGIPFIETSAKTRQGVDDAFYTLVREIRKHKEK
Description: FIG. 6A is a picture of a barcoded rapid assay microchip (60) following its use for binding curve assays of KRAS to candidate ligands. […] EC50 binding curves of 15 candidate ligands were simultaneously generated against the target protein KRAS. Each microwell (ovals) represents a distinct concentration of KRAS that was added (values are given above each well). All 15 candidate ligands were measured in triplicate in each microwell.
FIG. 6B is a graph of the EC50 binding curves generated from the barcoded rapid assay microchip of FIG. 6A. Images of the barcoded rapid assay microchip were digitized using a fluorescence image scanner and plotted as binding curves (61) for each of the candidate ligands. All binding curves were fitted to Hill functions, with the Hill coefficient set to 1.
A series of peptide ligands that were identified as candidate binders to the protein KRas, using known literature methods, were prepared according to the methods of FIG. 3, and assembled into the individual microwells of the barcoded rapid assay microchip as illustrated in FIG. 4. […] Fluorescence imaging of the individual wells was then used to generate a fluorescence intensity, vs KRAS concentration, for each of the individual candidate ligands. […]

KRAS [2] = biological target: T1, KRAS; assay: B-RAP surface immunofluorescent assay, PCC ligand KRas EC50; format: binding
Description: The barcode patterned microchip surface was partitioned into 16 individual microwells using a pre-fabricated PDMS slab. Individual biotinylated PCC candidates were complexed to specific SAC-DNA conjugates, combined into a cocktail, and then self-assembled, via DNA hybridization, onto designated barcode stripes (FIGS. 2-4). Incubation with a specific concentration of the target protein preceded incubation with a primary capture antibody and then a fluorophore-conjugated secondary detection antibody. During assay execution, each well represents a different target concentration or assay condition. Once developed, the fluorescence of the barcodes is digitized using a GenePix 4400A array scanner, with an excitation laser power optimized to a power level of 40% (60 W), which maximizes detection sensitivity while also minimizing signal saturation. Data extraction occurs using 10 μm radius circles, taken along the length of a barcode stripe. A fluorescence signal representing the average of all the pixels within a given circle is collected. A total of ten circles (data-blocks) are measured along a 180 μm span of the middle portion for each individual barcode lane in a given well. 10 μM KRas protein gave an average F635 of 47,868.7, with a standard deviation of 4154.53. 1 μM KRas protein gave an average F635 of 11437.6, with a standard deviation of 1602.202. 100 nM KRas protein gave an average F635 of 1780.6, with a standard deviation of 236.38. This illustrates the intensity across a stripe compared to the intensity from the data-block extraction. After extraction the data is background corrected. The background signal arises from (a) non-specific binding of the primary and secondary antibodies (independent of [KRas]), but can vary across different barcode stripes), and (b) non-specific binding of KRas protein ([KRas] dependent). Background (a) was assessed by measuring the average signal in the null protein well for each stripe. Background (b) was assessed by measuring the average fluorescence for the dummy ligand (Biotin* probe) that was in each well. The background subtracted data was then graphed in Graphpad Prism 7 and fitted to a sigmoidal curve (Hill coefficient=1).
Measurement of PCC Ligand KRas EC50 with the Barcode Rapid Assay Platform
Protein Incubation Buffer: Tris-buffered saline (TBS)+0.05% Tween20 (TBST)
A pre-fabricated PDMS template was aligned onto the DNA barcode microchip, and the microchip was taped into a 10 cm petri dish. The wells on the platform were wet with 50 μL PBST before filling with blocking buffer and placing into a 37° C. incubator for 1 hr. Concurrently, 40 μL 1% BSA in PBS solutions containing 750 nM of a SAC-DNA conjugate and 3.75 μM of one biotinylated PCC ligand or biotin-A20-Cy3 blank were prepared for each SAC-DNA conjugate. The biotinylated ligands were allowed to complex with the SAC protein for one hour before pooling the SAC-DNA-ligand solutions (final [SAC-DNA-ligand conjugates]=50 nM). The blocking buffer was aspirated and each well was loaded with the SAC-DNA-ligand conjugates cocktail for hybridization with the DNA barcode at 37° C. for one hour. The wells were washed with PBST (3×) before loading serially diluted solutions of KRas protein in protein buffer (0 to 400 μM). After shaking at RT for one hour, the wells were rinsed with PBST (5×), making sure to pipet up/down with the first addition of PB ST. A (100:1) dilution of CST rabbit anti-Ras Ab (#39655) in 1° ab buffer was added to each well before shaking at RT for one hour. After rinsing the wells with PBST (3×), the wells were loaded with a (200:1) dilution of Abcam goat anti-rabbit-Alexafluor 647 linked ab (ab150079) in 2° ab buffer before shaking at RT for one hour. A final rinse of the wells with PBST (3×) proceeded peeling off the PDMS slab from the barcode microchip and dipping the barcode into the following solutions: PBS, (1:1) PBS: MQ H2O, MQ H2O (2×). […]

KRAS [3] = biological target: T1, KRAS; assay: Multi-well ELISA, PCC ligand KRas EC50; format: binding; conditions: triplicate, KRas 0→300 μM, Hill coefficient=1
Description: Measurement of PCC Ligand KRas EC50 Using the Multi-Well ELISA Technology
A 96-well Pierce Neutravidin Plate was washed with binding buffer (3×5 minutes at RT) before loading plate with a 1 μM solution of either blank (biotin-PEG5-NHAc) (singly) or biotinylated PCC ligand (in triplicate). The plate incubated for two hours before washing with binding buffer (3×5 minutes). Blocking buffer was added to each well and the plate blocked for one hour before undergoing washing with binding buffer (3×5 minutes). Each well was loaded with either binding buffer or KRas solution (0→300 μM), and the plate was incubated for 30 minutes. Plate washing with binding buffer (3×5 minutes) preceded incubating the plate with a (1000:1) dilution of 1° antibody (ab) rabbit anti-Ras (CST #3965) in ab buffer for thirty minutes. The plate was washed with binding buffer (3×5 minutes), loaded with a (2000:1) dilution of 2° ab goat anti-rabbit, HRP-linked ab (CST #7074) in ab buffer, and incubated for an additional thirty minutes. […] After quenching the enzymatic reaction with 1M H2SO4(aq) (100 μL) the plate was read at λ=450 nm within ten minutes. The data was double background corrected using the ab only absorbance and the dummy ligand absorbance, plotted using Prism GraphPad 7 (Sigmoidal 4PL mode with the Hill coefficient set=1), and an EC50 value was calculated.

Structure (SMILES): NC(=O)CC[C@@H]1NC(=O)[C@@H](N)Cc2cn(nn2)CCCC[C@@H](C(=O)NCCOCCOCCOCCOCCOCCC(=O)NCCNC(=O)CCCC[C@@H]2SC[C@@H]3NC(=O)N[C@@H]32)NC(=O)[C@H](Cc2ccc(O)cc2)NC(=O)[C@H](Cc2ccccc2)NC(=O)[C@H](CC(N)=O)NC(=O)[C@H](CC(=O)O)NC1=O (single isomer, unassigned) [Ligand L9b, QDNFY]
- EC50 (KRAS [1]): 6.29 µM
- Avg F635, Full Centroid (KRAS [2]; 10 μM KRas well of plate #1, pixel by pixel, full centroid): 45500
- Avg F635, Full Lane (KRAS [2]; 10 μM KRas well of plate #1, pixel by pixel, full lane): 41812
- avg F635, Left Part Centroid (KRAS [2]; 10 μM KRas well of plate #1, pixel by pixel, left part of centroid): 39380
- avg F635, Middle Part Centroid (KRAS [2]; 10 μM KRas well of plate #1, pixel by pixel, middle part of centroid): 47791
- avg F635, Right Part Centroid (KRAS [2]; 10 μM KRas well of plate #1, pixel by pixel, right part of centroid): 49508
- EC50 (KRAS [2]; 13-point KRas concentration series, each point in decaplicate, Hill coefficient=1): 3.86 ± 0.57 µM
- EC50 (KRAS [3]): 3 ± 4.9 µM
